{
  "source": "patent US4036957A",
  "about": "“Phenoxy compounds in combinations to suppress gastric bleeding in aspirin therapy” (priority 1975, dated 1977)",
  "key": {"[1]": {"system": "Carrageenan pleural effusion", "assay": "Evans Blue-Carrageenan Pleural Effusion Test", "assay_type": "in vivo, rats", "details": "rat", "excerpt": "The effect of metaxalone (Compound 15) on the anti-inflammatory activity of aspirin in rats was studied using a modification of the Evans Blue-Carrageenan Pleural Effusion Test [Sancilio, L. F., Journal of Pharmacology and Experimental Therapeutics 168, 199-204 (1969)]."}, "[2]": {"system": "aspirin-induced gastric bleeding", "assay_type": "in vivo, cats", "details": "cat, 30 min, aspirin 10 mg topical, no glyceryl guaiacolate", "description": "Fasted cats weighing […] were anesthetized with phenobarbital sodium (130 mg/kg, i.p.). Glyceryl guaiacolate was administered intravenously for a total of 2 hrs. beginning 60 min. prior to the topical application of the aspirin (10 mg) to the gastric mucosa. Throughout the experiment, artificial gastric juice (USP, pH 1.3) bathed the mucosa by means of the specially designed chamber. The number of bleeding sites occurring at various exposure sites were recorded at 15, 30 and 60 min. Glyceryl guaiacolate was given at doses of 10 and 30 mg/kg/hr via a previously cannulated jugular vein using an infusion pump (Harvard Apparatus Co., Model 1202). […] An important point is that with 30 mg/kg/hr, i.v., of glyercyl guaiacolate there was no bleeding at 30 min. compared with an average of 14 bleeding sites when no glyceryl guaiacolate was adminsitered. A total of 23 cats were used and there was a minimum of 24 aspirin exposure sites for each dose of glyceryl guaiacolate."}, "[3]": {"system": "aspirin-induced gastric bleeding", "assay": "Aspirin-induced gastric bleeding in Cr51 labeled Heidenhain pouch dogs, oral", "assay_type": "in vivo", "details": "dog; for Mucosal Blood Loss, HCl + Aspirin / Mucosal Blood Loss, HCl: ± S.E.; for Mucosal Blood Loss, HCl: without aspirin; for % Change from Control (mucosal blood loss): P >0.05", "description": "Methocarbamol (Compound 3) and Metaxalone (Compound 15) were evaluated for their effectiveness upon oral administration against aspirin-induced gastric bleeding in dogs. Three female chronic Heindehain pouch dogs were used. Red blood cells from each dog were labeled with Cr^51. The dogs were fasted 24 hours prior to any study and three days elapsed between studies. On experimental days each fundic pouch was rinsed with tepid tap water and then filled with 10 ml. of normal saline. After 30 minutes the saline was replaced with 10 ml. of artificial gastric juice (USP, pH 1.3). The dogs were given Compound 3 (200 mg/kg) or Compound 15 (50 and 100 mg/kg) or placebo (starch) orally in gelatin capsules. The 10 ml. of gastric juice was removed from the pouch after 60 minutes and replaced with another 10 ml. of juice containing 100 mg. of aspirin (80 mesh). This was likewise removed after 60 minutes. All samples collected from the pouches were counted for radio-activity using a deep-well counter. From the amount of radio-activity present in the gastric samples, the loss of blood into the pouch was determined. The results are shown in Table 3 and show the effectiveness of orally administering Compounds 3 and 15 in preventing aspirin-induced gastric bleeding."}, "[4]": {"system": "aspirin-induced gastric bleeding", "assay": "Prevention of aspirin-induced gastric bleeding in pyloric-ligated rats, i.p. test compound (Examples 1-22)", "assay_type": "in vivo, Female Sprague-Dawley rats", "details": "rat", "description": "The prevention of aspirin-induced bleeding in rats was determined by the following procedure. Female Sprague-Dawley rats weighing 150-180 g. were fasted for 24 hours on wire and divided into groups of six animals each. The rats were anesthetized and a ligature placed at the pyloric-duodenal junction. Groups serving as controls received normal saline (4.0 ml/kg, i.p.). […] Some of the compounds were tested at 50 mg/kg, i.p. The rats were sacrificed 60 min. after aspirin administration by cervical dislocation. The volume of the gastric contents was determined and compared against that produced with the same amount of aspirin for change in volume. […] (Gradation between 0 to 40 is on an even scale)."}},
  "note": "Where two headings read alike, the source gives them in different places.",
  "data": [
    {"smiles": "CC(=O)Oc1ccccc1C(=O)O", "note": "[Aspirin, aspirin]", "values": [
      {"measurement": "Pleural Fluid", "setting": "[1]; aspirin 150 mg/kg oral, ± S.D., P <0.05", "result": "4.2 ± 0.28", "unit": "mL"},
      {"measurement": "% Decrease in Pleural Fluid vs Control", "setting": "[1]; aspirin 150 mg/kg oral, P <0.05", "result": 38, "unit": "%"},
      {"measurement": "average number of bleeding sites", "setting": "[2]", "result": 14, "unit": "bleeding sites"}
    ]},
    {"smiles": "Cc1cc(C)cc(OCC2CNC(=O)O2)c1", "note": "(centres unmarked) [Compound 15, 5-(3,5-dimethylphenoxymethyl)-2-oxazolidinone]", "values": [
      {"measurement": "% Protection", "setting": "[3]; 50 mg/kg p.o.", "result": 77, "unit": "%"},
      {"measurement": "Mucosal Blood Loss, HCl + Aspirin", "setting": "[3]; 50 mg/kg p.o.", "result": "8.6 ± 3.7", "unit": "µL"},
      {"measurement": "Mucosal Blood Loss, HCl", "setting": "[3]; 50 mg/kg p.o.", "result": "4.4 ± 2.4", "unit": "µL"},
      {"measurement": "% Change from Control (mucosal blood loss)", "setting": "[3]; 50 mg/kg p.o.", "result": "+95%"},
      {"measurement": "% Protection", "setting": "[3]; 100 mg/kg p.o.", "result": 100, "unit": "%"},
      {"measurement": "Mucosal Blood Loss, HCl + Aspirin", "setting": "[3]; 100 mg/kg p.o.", "result": "12.7 ± 3.5", "unit": "µL"},
      {"measurement": "Mucosal Blood Loss, HCl", "setting": "[3]; 100 mg/kg p.o.", "result": "13.0 ± 1.5", "unit": "µL"},
      {"measurement": "% Change from Control (mucosal blood loss)", "setting": "[3]; 100 mg/kg p.o.", "result": -2, "unit": "%"},
      {"measurement": "preventing aspirin-induced gastric bleeding (in words)", "setting": "[3]; oral", "result": "effectiveness"},
      {"measurement": "effect on the anti-inflammatory effectiveness of aspirin", "setting": "[1]; metaxalone 100 mg/kg 30 min before aspirin 150 mg/kg p.o. and again 2 hrs after Carrageenan", "result": "no effect"},
      {"measurement": "change in vivo at 50 mg/kg", "setting": "[4]; ip, 1 h, 50 mg/kg i.p., aspirin 375 mg/kg p.o., read-out: Percent Decrease in Mucosal Bleeding vs Control", "result": -98, "unit": "%"},
      {"measurement": "change in vivo at 100 mg/kg", "setting": "[4]; ip, 1 h, 100 mg/kg i.p., aspirin 375 mg/kg p.o., read-out: Percent Decrease in Mucosal Bleeding vs Control", "result": -96, "unit": "%"},
      {"measurement": "ED50", "setting": "[4]; ip", "result": 19.6, "unit": "mg/kg"},
      {"measurement": "change in vivo at 100 mg/kg", "setting": "[4]; ip, 100 mg/kg i.p. (column head states no dose), aspirin 375 mg/kg p.o., read-out: Vol. % Decrease in Gastric Secretion", "result": -41.4, "unit": "%"},
      {"measurement": "Gastric Bleeding Index", "setting": "[4]; 12.5 mg/kg i.p.", "result": "27.5 ± 4.2"},
      {"measurement": "Total Hemoglobin Loss", "setting": "[4]; 12.5 mg/kg i.p.", "result": "19.3 ± 3.4", "unit": "mg"},
      {"measurement": "Vol. Gastric Secretion", "setting": "[4]; 12.5 mg/kg i.p.", "result": "6.3 ± 0.3", "unit": "mL"},
      {"measurement": "Percent Decrease in Mucosal Hemorrhage vs Control", "setting": "[4]; 12.5 mg/kg i.p., P >.05", "result": 21, "unit": "%"},
      {"measurement": "Gastric Bleeding Index", "setting": "[4]; 25.0 mg/kg i.p.", "result": "15.0 ± 5.0"},
      {"measurement": "Total Hemoglobin Loss", "setting": "[4]; 25.0 mg/kg i.p.", "result": "15.3 ± 6.3", "unit": "mg"},
      {"measurement": "Vol. Gastric Secretion", "setting": "[4]; 25.0 mg/kg i.p.", "result": "5.1 ± 0.3", "unit": "mL"},
      {"measurement": "Percent Decrease in Mucosal Hemorrhage vs Control", "setting": "[4]; 25.0 mg/kg i.p., P <.025", "result": 57, "unit": "%"},
      {"measurement": "Gastric Bleeding Index", "setting": "[4]; 50.0 mg/kg i.p.", "result": "0.8 ± 0.8"},
      {"measurement": "Total Hemoglobin Loss", "setting": "[4]; 50.0 mg/kg i.p.", "result": "2.5 ± 1.1", "unit": "mg"},
      {"measurement": "Vol. Gastric Secretion", "setting": "[4]; 50.0 mg/kg i.p.", "result": "3.6 ± 0.5", "unit": "mL"},
      {"measurement": "Percent Decrease in Mucosal Hemorrhage vs Control", "setting": "[4]; 50.0 mg/kg i.p., P <.001", "result": 98, "unit": "%"},
      {"measurement": "Gastric Bleeding Index", "setting": "[4]; 100.0 mg/kg i.p.", "result": "3.3 ± 1.7"},
      {"measurement": "Total Hemoglobin Loss", "setting": "[4]; 100.0 mg/kg i.p.", "result": "2.5 ± 1.4", "unit": "mg"},
      {"measurement": "Vol. Gastric Secretion", "setting": "[4]; 100.0 mg/kg i.p.", "result": "3.8 ± 0.4", "unit": "mL"},
      {"measurement": "Percent Decrease in Mucosal Hemorrhage vs Control", "setting": "[4]; 100.0 mg/kg i.p., P <.001", "result": 91, "unit": "%"},
      {"measurement": "preventing aspirin-induced gastric bleeding (in words)", "setting": "[4]; i.p.", "result": "very effective"},
      {"measurement": "Gastric Bleeding Index", "setting": "[4]; score 0 to 40, 100 mg/kg i.p. (column head states no dose), aspirin 375 mg/kg p.o.", "result": 0.8}
    ]}
  ]
}
